The target of one data set is T1, AlbAB (Streptomyces noursei, UniProt Q8GED8+Q8GED9, Q8GED9:S77A).
T1 construct: gene albA; AlbA ca. 21 kDa, AlbB ca. 11 kDa; filament of alternating AlbA2 and AlbB2 dimers; FMN covalent at AlbA C115
In words: coupled horseradish peroxidase H2O2 fluorescence assay, Michaelis-Menten fit. It counts as biochemical. The conditions noted are these: 100 mM Tris pH 8.0, 30 °C, O2, 1 mM 4-hydroxyphenylacetic acid, 0.1 U HRP, 0.25 µM AlbAB.

Data set [1] deals with the molecule itself. The data set is described as follows: SEC + other: dynamic light scattering; DLS at 25 °C, AlbAB 0.1 mg/mL and AlbB 1 mg/mL in 150 mM NaCl, 20 mM Tris pH 7.5; size exclusion chromatography. Background: SEC sorts molecules by how far they enter the pores of the column.

Data on two molecules can be found in paper PMC11055893, “Cyclodipeptide oxidase is an enzyme filament” (Nature Communications, 2024).

T1 sequence (Q8GED9 24-219 S77A, one chain of several): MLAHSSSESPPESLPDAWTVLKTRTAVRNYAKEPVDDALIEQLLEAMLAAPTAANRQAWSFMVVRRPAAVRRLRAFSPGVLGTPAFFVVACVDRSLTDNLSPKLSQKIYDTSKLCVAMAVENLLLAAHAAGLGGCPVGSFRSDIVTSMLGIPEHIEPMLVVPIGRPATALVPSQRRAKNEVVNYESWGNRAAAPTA

Regarding `CC(C)C[C@@H]1NC(=O)[C@H](Cc2ccccc2)NC1=O` [cyclo(L-Phe-L-Leu)], the KM result on AlbAB is “velocities for AlbAB and AlbA-S54A/AlbB were then fit to a Michaelis-Menton non-linear regression model”.

B1: AlbB expressed alone (His tag removed) (natural protein, Streptomyces noursei)
chain: MNPGETVLPPQLREEIALLAVYLLSSGRGLLEEPADYGIYRCTDGARRALQLLDEHGGSTARLTAVRERLDEVMFAPMGEDRDMGAILDDLCRQMADALPEIETP
notes: AlbB, Streptomyces noursei; gene PCR-amplified from the AlbAB-encoding pGM1190 vector into pETDuet-1 multiple cloning site 2, with a TEV site to remove the tag; also called His-tagged AlbB; source: E. coli BL21 (DE3), pETDuet-1, purified (His-Trap, TEV cleavage, second His-Trap); not shown: His tag, N-terminal, cleaved
For B1, the “stoichiometry N” value in data set [1] was found to be 2.

For orientation: stoichiometry N means the number of molecules, sites or subunits per partner or assembly.
